# Assay results published in the supplement of paper PMC10307832.
# Tests used:
# Assay in all cases: relative viability (nuclei count vs DMSO), 5 days (fraction); higher = more cells survive
# Vismodegib + Decitabine = compound: CS(=O)(=O)c1ccc(C(=O)Nc2ccc(Cl)c(-c3ccccn3)c2)c(Cl)c1 [Vismodegib] + Nc1ncn([C@H]2C[C@H](O)[C@@H](CO)O2)c(=O)n1 [Decitabine] (partner 2 µM)
# How it was run: (§1)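 Relative viability was taken as the ratio of nuclei in treated wells to nuclei in vehicle wells. Lung cancer cell lines in 1536-well plates received compounds by pin tool one day after seeding, either one drug alone or a fixed anchor-drug dose plus five library-drug doses (not always all listed) in √10 steps. Nuclei were counted on 4× images after 5 days of treatment, and values are medians of duplicate plates.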
# Vismodegib + Luminespib = compound: CS(=O)(=O)c1ccc(C(=O)Nc2ccc(Cl)c(-c3ccccn3)c2)c(Cl)c1 [Vismodegib] + CCNC(=O)c1noc(-c2cc(C(C)C)c(O)cc2O)c1-c1ccc(CN2CCOCC2)cc1 [Luminespib] (partner 0.01 µM)
# How it was run: as §1
# [1] = compound: N#CC[C@H](C1CCCC1)n1cc(-c2ncnc3[nH]ccc23)cn1 [Ruxolitinib] + CC(=O)c1c(C)c2cnc(Nc3ccc(N4CCNCC4)cn3)nc2n(C2CCCC2)c1=O [Palbociclib] (partner 0.5 µM)
# How it was run: as §1
# VE-821 + Palbociclib = compound: CS(=O)(=O)c1ccc(-c2cnc(N)c(C(=O)Nc3ccccc3)n2)cc1 [VE-821] + CC(=O)c1c(C)c2cnc(Nc3ccc(N4CCNCC4)cn3)nc2n(C2CCCC2)c1=O [Palbociclib] (partner 0.5 µM)
# How it was run: as §1
cell line,measurement,setting,value
UMC-11,relative viability,Vismodegib + Decitabine; first compound 0.08 µM,0.623
same,relative viability,Vismodegib + Decitabine; first compound 0.253 µM,0.579
same,relative viability,Vismodegib + Decitabine; first compound 0.8 µM,0.489
same,relative viability,Vismodegib + Decitabine; first compound 2.53 µM,0.457
same,relative viability,Vismodegib + Decitabine; first compound 8 µM,0.53
same,relative viability,Vismodegib + Luminespib; first compound 0.08 µM,0.937
same,relative viability,Vismodegib + Luminespib; first compound 0.253 µM,0.966
same,relative viability,Vismodegib + Luminespib; first compound 0.8 µM,1.01
same,relative viability,Vismodegib + Luminespib; first compound 2.53 µM,0.933
same,relative viability,Vismodegib + Luminespib; first compound 8 µM,1.04
same,relative viability,[1]; first compound 0.08 µM,0.345
same,relative viability,[1]; first compound 0.253 µM,0.399
same,relative viability,[1]; first compound 0.8 µM,0.329
same,relative viability,[1]; first compound 2.53 µM,0.366
same,relative viability,[1]; first compound 8 µM,0.362
same,relative viability,VE-821 + Palbociclib; first compound 0.08 µM,0.339
same,relative viability,VE-821 + Palbociclib; first compound 0.253 µM,0.309
same,relative viability,VE-821 + Palbociclib; first compound 0.8 µM,0.338
same,relative viability,VE-821 + Palbociclib; first compound 2.53 µM,0.377
same,relative viability,VE-821 + Palbociclib; first compound 8 µM,0.299
